Assay results: ChEMBL document CHEMBL4422610, “HDAC as onco target: Reviewing the synthetic approaches with SAR study of their inhibitors” (Eur J Med Chem, 2018)

What was measured:
[1] = target: T1, Protein deacetylase HDAC6 (Mus musculus, UniProt Q9Z2V5); test: Inhibition of recombinant mouse HDAC6 expressed in HEK293T cells using Ac-KGLGK(Ac)-MCA as substrate measured after 30 mins by fluorescence assay
T1 sequence (Q9Z2V5 whole entry): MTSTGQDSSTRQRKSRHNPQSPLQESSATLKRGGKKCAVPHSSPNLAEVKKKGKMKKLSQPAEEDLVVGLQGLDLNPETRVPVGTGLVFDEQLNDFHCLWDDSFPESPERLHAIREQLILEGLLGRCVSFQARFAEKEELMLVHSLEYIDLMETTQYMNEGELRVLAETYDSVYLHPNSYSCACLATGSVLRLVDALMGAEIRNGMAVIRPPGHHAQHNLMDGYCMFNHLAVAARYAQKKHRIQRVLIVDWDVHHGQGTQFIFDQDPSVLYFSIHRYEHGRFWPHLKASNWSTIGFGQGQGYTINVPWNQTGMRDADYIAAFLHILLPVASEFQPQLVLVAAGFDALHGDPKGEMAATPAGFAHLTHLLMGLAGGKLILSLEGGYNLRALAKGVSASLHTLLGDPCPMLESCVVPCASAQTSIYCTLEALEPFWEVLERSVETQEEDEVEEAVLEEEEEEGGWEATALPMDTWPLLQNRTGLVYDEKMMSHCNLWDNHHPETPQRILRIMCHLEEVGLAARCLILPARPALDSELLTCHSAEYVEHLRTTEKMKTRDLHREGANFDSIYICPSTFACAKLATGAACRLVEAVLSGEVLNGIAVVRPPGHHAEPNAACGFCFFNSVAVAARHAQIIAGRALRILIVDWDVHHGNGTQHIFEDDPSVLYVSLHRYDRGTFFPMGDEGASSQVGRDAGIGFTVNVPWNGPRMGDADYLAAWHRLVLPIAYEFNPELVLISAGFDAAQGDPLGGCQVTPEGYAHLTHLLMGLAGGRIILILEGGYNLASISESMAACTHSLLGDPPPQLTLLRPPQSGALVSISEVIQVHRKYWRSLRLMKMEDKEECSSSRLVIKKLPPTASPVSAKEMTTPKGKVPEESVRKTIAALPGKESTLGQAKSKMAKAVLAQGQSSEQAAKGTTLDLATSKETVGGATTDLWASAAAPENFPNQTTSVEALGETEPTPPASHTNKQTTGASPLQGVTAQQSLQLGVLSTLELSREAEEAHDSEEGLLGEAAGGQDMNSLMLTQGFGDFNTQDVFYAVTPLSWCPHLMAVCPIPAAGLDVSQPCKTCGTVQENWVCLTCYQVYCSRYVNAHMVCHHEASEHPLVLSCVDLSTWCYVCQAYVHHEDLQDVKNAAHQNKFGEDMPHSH

Histone deacetylase 4 = Histone deacetylase 4 (Homo sapiens, UniProt P56524); test: Inhibition of recombinant human HDAC4 expressed in HEK293T cells using Ac-KGLGK(Ac)-MCA as substrate measured after 30 mins by fluorescence assay
Sequence of Histone deacetylase 4 (P56524 whole entry): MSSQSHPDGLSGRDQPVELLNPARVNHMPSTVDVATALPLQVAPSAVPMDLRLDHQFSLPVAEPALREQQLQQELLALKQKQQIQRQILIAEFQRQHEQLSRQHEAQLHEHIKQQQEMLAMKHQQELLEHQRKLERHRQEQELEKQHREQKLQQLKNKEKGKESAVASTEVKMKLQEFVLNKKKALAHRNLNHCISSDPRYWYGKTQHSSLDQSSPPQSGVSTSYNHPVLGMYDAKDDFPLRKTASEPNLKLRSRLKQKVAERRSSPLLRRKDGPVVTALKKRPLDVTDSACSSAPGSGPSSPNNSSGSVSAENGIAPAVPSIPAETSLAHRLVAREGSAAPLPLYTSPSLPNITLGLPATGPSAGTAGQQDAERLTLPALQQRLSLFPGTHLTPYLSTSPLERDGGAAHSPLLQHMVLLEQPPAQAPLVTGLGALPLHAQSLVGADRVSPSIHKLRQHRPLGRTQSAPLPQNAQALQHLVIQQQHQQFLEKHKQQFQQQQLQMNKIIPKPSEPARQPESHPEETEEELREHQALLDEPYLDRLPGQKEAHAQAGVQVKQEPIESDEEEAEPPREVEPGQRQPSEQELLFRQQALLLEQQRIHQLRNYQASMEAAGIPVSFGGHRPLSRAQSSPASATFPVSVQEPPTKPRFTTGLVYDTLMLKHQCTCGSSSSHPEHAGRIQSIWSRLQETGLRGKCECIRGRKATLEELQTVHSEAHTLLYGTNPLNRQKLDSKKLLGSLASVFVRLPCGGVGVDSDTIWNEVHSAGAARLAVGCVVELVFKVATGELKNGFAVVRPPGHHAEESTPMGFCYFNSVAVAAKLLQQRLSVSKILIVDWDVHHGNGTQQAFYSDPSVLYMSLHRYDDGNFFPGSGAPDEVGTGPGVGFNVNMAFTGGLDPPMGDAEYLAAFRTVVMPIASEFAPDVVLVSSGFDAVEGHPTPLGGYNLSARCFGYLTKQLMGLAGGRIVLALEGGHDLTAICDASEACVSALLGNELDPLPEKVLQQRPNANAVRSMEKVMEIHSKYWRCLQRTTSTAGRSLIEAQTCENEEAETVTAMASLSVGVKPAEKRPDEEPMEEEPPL

Histone deacetylase 1 [2] = target: T2, Histone deacetylase 1 (Homo sapiens, UniProt Q13547); test: Inhibition of recombinant human HDAC1 expressed in HEK293T cells using Ac-KGLGK(Ac)-MCA as substrate measured after 30 mins by fluorescence assay
T2 sequence (Q13547 whole entry): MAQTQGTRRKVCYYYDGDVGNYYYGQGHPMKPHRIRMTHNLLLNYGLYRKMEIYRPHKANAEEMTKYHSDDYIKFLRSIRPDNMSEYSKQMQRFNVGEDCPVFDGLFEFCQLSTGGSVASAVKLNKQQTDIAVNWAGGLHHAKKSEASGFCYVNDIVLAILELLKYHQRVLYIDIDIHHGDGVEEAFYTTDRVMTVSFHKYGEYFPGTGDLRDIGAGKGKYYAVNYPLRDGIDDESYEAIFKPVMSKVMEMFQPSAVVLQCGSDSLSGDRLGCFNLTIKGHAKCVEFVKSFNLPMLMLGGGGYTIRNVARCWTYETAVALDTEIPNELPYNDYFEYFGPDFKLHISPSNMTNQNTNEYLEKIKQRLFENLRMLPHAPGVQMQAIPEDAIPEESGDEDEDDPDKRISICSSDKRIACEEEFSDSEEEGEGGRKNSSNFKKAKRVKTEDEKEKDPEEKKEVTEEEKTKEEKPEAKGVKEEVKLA

Histone deacetylase 1 [3] = target: T2, Histone deacetylase 1; test: Inhibition of recombinant human His-tagged HDAC1 (482 residues) expressed in baculovirus infected insect cells using Boc Lys(Ac)-AMC as substrate preincubated for 5 mins followed by substrate addition and measured after 30 mins by fluorescence assay
[4] = target: T3, Protein deacetylase HDAC6 (Homo sapiens, UniProt Q9UBN7); test: Inhibition of recombinant human His-tagged HDAC6 expressed in baculovirus infected insect cells using Boc Lys(Ac)-AMC as substrate preincubated for 5 mins followed by substrate addition and measured after 30 mins by fluorescence assay
T3 sequence (Q9UBN7 whole entry): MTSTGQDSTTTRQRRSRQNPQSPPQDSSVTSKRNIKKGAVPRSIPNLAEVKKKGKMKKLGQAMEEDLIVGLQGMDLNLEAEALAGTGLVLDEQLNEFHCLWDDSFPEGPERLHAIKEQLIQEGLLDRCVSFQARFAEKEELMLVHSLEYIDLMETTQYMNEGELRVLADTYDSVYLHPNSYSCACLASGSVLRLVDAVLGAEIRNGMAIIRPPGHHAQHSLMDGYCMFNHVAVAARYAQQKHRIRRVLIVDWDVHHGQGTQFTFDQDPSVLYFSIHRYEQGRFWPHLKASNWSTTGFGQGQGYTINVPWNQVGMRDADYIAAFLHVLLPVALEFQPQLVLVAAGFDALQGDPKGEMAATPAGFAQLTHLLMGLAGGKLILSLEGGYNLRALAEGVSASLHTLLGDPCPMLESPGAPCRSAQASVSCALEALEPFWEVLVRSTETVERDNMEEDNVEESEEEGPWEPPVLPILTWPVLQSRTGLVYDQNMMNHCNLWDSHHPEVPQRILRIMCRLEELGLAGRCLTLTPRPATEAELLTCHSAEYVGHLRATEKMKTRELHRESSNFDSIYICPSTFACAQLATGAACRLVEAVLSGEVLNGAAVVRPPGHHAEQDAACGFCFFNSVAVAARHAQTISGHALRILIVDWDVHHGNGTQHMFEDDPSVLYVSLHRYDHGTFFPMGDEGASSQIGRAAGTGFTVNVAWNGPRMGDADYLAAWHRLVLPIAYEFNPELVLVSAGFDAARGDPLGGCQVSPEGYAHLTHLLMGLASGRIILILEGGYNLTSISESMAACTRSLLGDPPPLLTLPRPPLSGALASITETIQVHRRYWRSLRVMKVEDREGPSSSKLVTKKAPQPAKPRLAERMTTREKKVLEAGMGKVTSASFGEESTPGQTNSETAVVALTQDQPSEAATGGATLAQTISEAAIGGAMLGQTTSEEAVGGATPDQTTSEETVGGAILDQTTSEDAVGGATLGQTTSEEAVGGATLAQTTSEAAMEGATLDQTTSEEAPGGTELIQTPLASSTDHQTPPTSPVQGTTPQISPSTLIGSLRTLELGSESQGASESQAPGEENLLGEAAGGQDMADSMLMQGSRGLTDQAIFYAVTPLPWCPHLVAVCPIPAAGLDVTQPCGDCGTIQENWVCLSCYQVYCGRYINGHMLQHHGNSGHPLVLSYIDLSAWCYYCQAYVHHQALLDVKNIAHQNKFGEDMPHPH

Histone deacetylase = assay type: cell-based, Homo sapiens; conditions: hela
Histone deacetylase 1 [5] = target: T2, Histone deacetylase 1; test: Inhibition of recombinant human GST-tagged HDAC1 expressed in baculovirus infected Sf9 insect cells Fluor-de-lys as substrate measured after 2 hrs by fluorescence assay
A549 = test: cells; assay type: functional, cell-based; conditions: Homo sapiens, A549, 72 h
K562 = test: cells; assay type: functional, cell-based; conditions: Homo sapiens, K562, 72 h
HCT-116 = test: cells; assay type: functional, cell-based; conditions: Homo sapiens, HCT-116, 72 h
[6] = target: Histone deacetylase (Homo sapiens) (UniProt Q13547+O15379+Q9UBN7+Q92769+Q9UQL6+Q8WUI4+Q9BY41+Q96DB2+P56524+Q9UKV0+Q969S8); test: Inhibition of HDAC in human K562 cells assessed as increase in histone acetylation levels at 500 nM after 3 hrs by FACS analysis relative to SAHA; assay type: cell-based
Zea mays = test: Inhibition of maize HD2 at 5 uM using [3H]acetate-labelled histone as substrate by liquid scintillation counting method relative to control
[7] = target: T3, Protein deacetylase HDAC6; test: Inhibition of recombinant full-length human HDAC6 expressed in baculovirus expression system using FAM-RHKK(Ac)-H2 as substrate measured by electrophoretic mobility shift assay
[8] = target: T3, Protein deacetylase HDAC6; test: Inhibition of HDAC6 (unknown origin)
[9] = target: Histone deacetylase (HDAC1 and HDAC2) (Homo sapiens, UniProt Q13547+Q92769); assay type: cell-based; conditions: hela
Histone deacetylase 3 = Histone deacetylase 3 (Homo sapiens, UniProt O15379); test: Inhibition of HDAC3 (unknown origin)
Sequence of Histone deacetylase 3 (O15379 whole entry): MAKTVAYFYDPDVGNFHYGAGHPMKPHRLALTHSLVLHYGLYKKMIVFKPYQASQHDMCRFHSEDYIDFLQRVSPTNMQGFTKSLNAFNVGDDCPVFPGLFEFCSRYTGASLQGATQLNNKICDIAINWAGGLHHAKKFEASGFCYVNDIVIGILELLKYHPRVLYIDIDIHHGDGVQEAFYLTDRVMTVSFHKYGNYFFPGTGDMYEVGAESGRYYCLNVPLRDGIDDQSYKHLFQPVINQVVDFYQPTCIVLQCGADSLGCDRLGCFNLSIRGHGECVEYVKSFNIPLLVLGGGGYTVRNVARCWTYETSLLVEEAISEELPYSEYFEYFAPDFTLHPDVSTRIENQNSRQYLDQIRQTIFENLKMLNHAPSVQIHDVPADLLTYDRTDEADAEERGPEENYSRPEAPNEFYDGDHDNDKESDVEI

O=C1N[C@@H]2CCCCCCCCCCC[C@H](NC2=O)C(=O)N2CCC[C@@H]2C(=O)N[C@H]1CCCCCB(O)O
IC50 [1]: > 100000 nM | IC50 (Histone deacetylase 4): 9400 nM | IC50 (Histone deacetylase 1 [2]): 12000 nM

CC(C)CCc1c(OCCCCOc2ccc(/C=C/C(=O)NO)cc2)ccc2c1OC(=O)CC2
IC50 (Histone deacetylase 1 [3]): 204 nM | IC50 [4]: 82.6 nM

CC(C)CCc1c(OCCCOc2cccc(/C=C/C(=O)NO)c2)ccc2c1OC(=O)CC2
IC50 (Histone deacetylase 1 [3]): 64.7 nM | IC50 [4]: 12.1 nM

CC(C)CCc1c(OCCOc2ccc(/C=C/C(=O)NO)cc2)ccc2c1OC(=O)CC2
IC50 (Histone deacetylase 1 [3]): 83.2 nM | IC50 [4]: 55.6 nM

COc1ccc(-c2nc(C(=O)N(CCN(C)C)Cc3ccc(C(=O)NO)cc3)cc3c2[nH]c2ccccc23)cc1
IC50 (Histone deacetylase): 92 nM

CCCCc1nc2cc(/C=C/C(=O)NO)ccn2c1CN(CC)CCCC
IC50 (Histone deacetylase 1 [5]): 60 nM

COc1ccc(-c2cn(CCCCCCC(=O)NO)nn2)cc1
IC50 (A549): 2840 nM | IC50 (K562): 1530 nM | IC50 (HCT-116): 1780 nM | histone acetylation relative to SAHA [6]: 85%

COCC(=O)CCCCC[C@@H]1NC(=O)[C@H]2CCCN2C(=O)[C@@H]2CCCCCCCCCCC[C@@H](NC1=O)C(=O)N2
IC50 [1]: > 100000 nM | IC50 (Histone deacetylase 4): 26 nM | IC50 (Histone deacetylase 1 [2]): 27 nM

Cn1cc(C(=O)c2ccc(Cl)cc2)cc1/C=C/C(=O)NO
inhibition (Zea mays): 87%

COc1ccc2c(c1)[nH]c1c(C)nccc12 [HARMINE]
IC50 (Histone deacetylase): > 10000 nM

Cn1cc(C(=O)c2ccccc2)cc1/C=C/C(=O)NO
inhibition (Zea mays): 86%

CN(Cc1c(C(C)(C)C)nc2cc(/C=C/C(=O)NO)ccn12)CC(C)(C)C
IC50 (Histone deacetylase 1 [5]): 780 nM

CCN(CC)CCN(Cc1ccc(C(=O)NO)cc1)C(=O)c1cc2c([nH]c3ccccc32)c(-c2ccc(OC)cc2)n1
IC50 (Histone deacetylase): 120 nM

O=C(NO)c1ccc2c(c1)CC1(CC2)CCN(Cc2cc(Cl)ccc2Cl)C1=O (configuration not stated)
IC50 [7]: 100 to 500 nM

Cn1cc(C(=O)c2ccccc2)cc1CCC(=O)NO
inhibition (Zea mays): 45%

O=C(CCCCCCn1cc(-c2ccccc2)nn1)NO
IC50 (A549): 1980 nM | IC50 (K562): 1210 nM | IC50 (HCT-116): 1390 nM | histone acetylation relative to SAHA [6]: 108%

CCCCNCc1c(CCCC)nc2cc(/C=C/C(=O)NO)ccn12
IC50 (Histone deacetylase 1 [5]): 20 nM

Cn1cc(C(=O)c2ccccc2)cc1/C=C/C(=O)NN
inhibition (Zea mays): 0.2%

Cc1ccc(C(=O)c2cc(/C=C/C(=O)NO)n(C)c2)cc1
inhibition (Zea mays): 86.4%

COc1cc(/C=C/C(=O)NO)ccc1OCCCNC(=O)c1ccccc1O
IC50 [8]: 550 nM | IC50 [9]: 370 nM | IC50 (Histone deacetylase 3): 680 nM

CC(C)CCc1c(OCCOc2cccc(/C=C/C(=O)NO)c2)ccc2c1OC(=O)CC2
IC50 (Histone deacetylase 1 [3]): 66.8 nM | IC50 [4]: 6.31 nM

COc1cc(/C=C/C(=O)NO)ccc1OCCN(C)C(=O)c1ccccc1O
IC50 [8]: 430 nM | IC50 [9]: 240 nM | IC50 (Histone deacetylase 3): 380 nM

O=C(CCCCCn1cc(-c2ccccc2)nn1)NO
IC50 (A549): 12500 nM | IC50 (K562): 8350 nM | IC50 (HCT-116): 9370 nM | histone acetylation relative to SAHA [6]: 48%

COc1cc(/C=C/C(=O)NO)ccc1OCCCN(C)C(=O)c1ccccc1O
IC50 [8]: 350 nM | IC50 [9]: 180 nM | IC50 (Histone deacetylase 3): 290 nM

O=C(CCCCC[C@@H]1NC(=O)[C@H]2CCCN2C(=O)[C@@H]2CCCCCCCCCCC[C@@H](NC1=O)C(=O)N2)NO
IC50 [1]: 280 nM

O=C(NO)c1ccc2c(c1)CC1(CC2)CCN(Cc2ccc(OC(F)(F)F)cc2)C1=O (configuration not stated)
IC50 [7]: ≤ 100 nM

CCC(CC)CN(CC)Cc1c(C)nc2cc(/C=C/C(=O)NO)ccn12
IC50 (Histone deacetylase 1 [5]): 10 nM

CCCN(Cc1ccc(C(=O)NO)cc1)C(=O)c1cc2c([nH]c3ccccc32)c(-c2ccc(OC)cc2)n1
IC50 (Histone deacetylase): 260 nM

COc1ccc(CN2CCC3(CCc4ccc(C(=O)NO)cc4C3)C2=O)cc1 (configuration not stated)
IC50 [7]: ≤ 100 nM

O=C(CCCCCCn1cc(-c2ccc(Oc3ccccc3)cc2)nn1)NO
IC50 (A549): 4340 nM | IC50 (K562): 3300 nM | IC50 (HCT-116): 3550 nM | histone acetylation relative to SAHA [6]: 53%

COc1cc(/C=C/C(=O)NO)ccc1OCCCCNC(=O)c1ccccc1O
IC50 [8]: 360 nM | IC50 [9]: 220 nM | IC50 (Histone deacetylase 3): 410 nM

COc1cc(/C=C/C(=O)NO)ccc1OCCCCN(C)C(=O)c1ccccc1O
IC50 [8]: 380 nM | IC50 [9]: 220 nM | IC50 (Histone deacetylase 3): 260 nM
